Laboratory results from ChEMBL document CHEMBL4118195, “Synthesis and profiling of benzylmorpholine 1,2,4,5-tetraoxane analogue N205: Towards tetraoxane scaffolds with potential for single dose cure of malaria” (Bioorg Med Chem, 2018).

What was measured:
[1] = Drug metabolism in mouse liver microsomes assessed as bis-oxygenation and dehydrogenation metabolite formation at 5 uM after 60 mins by UPLC-MS analysis; assay type: ADME, microsome; conditions: 1 h
Cytochrome P450 3A4 = Cytochrome P450 3A4 (Homo sapiens, UniProt P08684); experiment: Inhibition of CYP3A4 in human liver microsomes assessed as testosterone 6beta-hydroxylation after 4 to 40 mins in presence of NADPH by LCMS analysis; assay type: ADME
Cytochrome P450 1A2 = biological target: T1, Cytochrome P450 1A2 (Homo sapiens, UniProt P05177); experiment: Inhibition of CYP1A2 in human liver microsomes assessed as phenacetin O-deethylation after 4 to 40 mins in presence of NADPH by LCMS analysis; assay type: ADME
T1 sequence (P05177 whole entry): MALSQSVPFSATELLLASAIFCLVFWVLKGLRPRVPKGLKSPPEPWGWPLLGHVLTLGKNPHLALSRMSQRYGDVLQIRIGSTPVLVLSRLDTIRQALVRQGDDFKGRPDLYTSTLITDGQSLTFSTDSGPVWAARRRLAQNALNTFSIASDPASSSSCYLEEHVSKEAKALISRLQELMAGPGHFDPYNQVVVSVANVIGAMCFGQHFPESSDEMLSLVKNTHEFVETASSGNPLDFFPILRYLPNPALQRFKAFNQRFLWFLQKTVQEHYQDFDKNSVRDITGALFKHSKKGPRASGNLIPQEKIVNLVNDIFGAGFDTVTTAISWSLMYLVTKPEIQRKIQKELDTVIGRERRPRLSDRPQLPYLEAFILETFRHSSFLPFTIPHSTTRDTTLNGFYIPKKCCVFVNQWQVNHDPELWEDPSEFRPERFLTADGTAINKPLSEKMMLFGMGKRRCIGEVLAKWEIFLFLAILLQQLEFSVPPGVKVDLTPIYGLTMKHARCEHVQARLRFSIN

[2] = Drug metabolism in human liver microsomes assessed as deaminated morpholine metabolite formation at 5 uM after 60 mins by UPLC-MS analysis; assay type: ADME, microsome; conditions: 1 h
[3] = Drug degradation in human liver microsomes assessed as compound half life at 5 uM by UPLC-MS method; assay type: ADME, microsome
Mus musculus [4] = experiment: Dose normalized AUC (0 to t) in humanized NOD.Cg-Prkdcscid Il2rgtm1Wjl/SzJ mouse infected with Plasmodium falciparum Pf3D70087/N9 at 50 mg/kg, po administered as single dose by LC-MS/MS analysis; assay type: ADME, organism-based; conditions: in vivo
[5] = Drug metabolism in rat liver microsomes assessed as cleaved morpholine ring metabolite formation at 5 uM after 60 mins by UPLC-MS analysis; assay type: ADME, microsome; conditions: 1 h
[6] = Drug metabolism in mouse liver microsomes assessed as deaminated morpholine metabolite formation at 5 uM after 60 mins by UPLC-MS analysis; assay type: ADME, microsome; conditions: 1 h
[7] = Drug metabolism in rat liver microsomes assessed as metabolite M+32 (IV) formation at 5 uM after 60 mins by UPLC-MS analysis; assay type: ADME, microsome; conditions: 1 h
[8] = Drug metabolism in rat liver microsomes assessed as deaminated morpholine acid metabolite formation at 5 uM after 60 mins by UPLC-MS analysis; assay type: ADME, microsome; conditions: 1 h
[9] = Drug metabolism in rat liver microsomes at 5 uM after 60 mins by UPLC-MS analysis; assay type: ADME, microsome; conditions: read-out: Drug metabolism
[10] = AUC (0 to t) in humanized NOD.Cg-Prkdcscid Il2rgtm1Wjl/SzJ mouse infected with Plasmodium falciparum Pf3D70087/N9 at 5 mg/kg, po administered as single dose by LC-MS/MS analysis; assay type: ADME, organism-based; conditions: in vivo
[11] = Drug metabolism in human liver microsomes assessed as cleaved morpholine ring metabolite formation at 5 uM after 60 mins by UPLC-MS analysis; assay type: ADME, microsome; conditions: 1 h
[12] = Drug metabolism in human liver microsomes assessed as metabolite M+16 (V) formation at 5 uM after 60 mins by UPLC-MS analysis; assay type: ADME, microsome; conditions: 1 h
Mus musculus [13] = experiment: Dose normalized Cmax in humanized NOD.Cg-Prkdcscid Il2rgtm1Wjl/SzJ mouse infected with Plasmodium falciparum Pf3D70087/N9 at 5 mg/kg, po administered as single dose after 0.25 to 23 hrs by LC-MS/MS analysis; assay type: ADME, organism-based; conditions: in vivo
[14] = Drug metabolism in human liver microsomes assessed as metabolite M+16 (IV) formation at 5 uM after 60 mins by UPLC-MS analysis; assay type: ADME, microsome; conditions: 1 h
[15] = Drug degradation in rat liver microsomes assessed as compound half life at 5 uM by UPLC-MS method; assay type: ADME, microsome
[16] = Oral bioavailability in Sprague-Dawley rat at 100 mg/kg administered via gavage by LC/MS analysis; assay type: ADME, organism-based; conditions: in vivo
[17] = Drug metabolism in mouse liver microsomes assessed as cleaved morpholine ring metabolite formation at 5 uM after 60 mins by UPLC-MS analysis; assay type: ADME, microsome; conditions: 1 h
Cytochrome P450 2C19 = Cytochrome P450 2C19 (Homo sapiens, UniProt P33261); experiment: Inhibition of CYP2C19 in human liver microsomes assessed as (S)-mephenytoin 4'-hydroxylation after 4 to 40 mins in presence of NADPH by LCMS analysis; assay type: ADME
[18] = Drug metabolism in human liver microsomes at 5 uM after 60 mins by UPLC-MS analysis; assay type: ADME, microsome; conditions: read-out: Drug metabolism
[19] = Drug metabolism in mouse liver microsomes assessed as metabolite M+32 (III) formation at 5 uM after 60 mins by UPLC-MS analysis; assay type: ADME, microsome; conditions: 1 h
[20] = Cmax in humanized NOD.Cg-Prkdcscid Il2rgtm1Wjl/SzJ mouse infected with Plasmodium falciparum Pf3D70087/N9 at 15 mg/kg, po administered as single dose after 0.25 to 23 hrs by LC-MS/MS analysis; assay type: ADME, organism-based; design: dose 15 mg/kg, route oral; conditions: in vivo
[21] = Intrinsic clearance in human liver microsomes assessed per mg protein at 1 uM by UPLC-MS analysis; assay type: ADME, microsome; conditions: read-out: CLH
[22] = Tmax in humanized NOD.Cg-Prkdcscid Il2rgtm1Wjl/SzJ mouse infected with Plasmodium falciparum Pf3D70087/N9 at 5 mg/kg, po administered as single dose by LC-MS/MS analysis; assay type: ADME, organism-based; conditions: in vivo
[23] = Metabolic stability in human blood after 2 to 4 hrs by LC-MS method; assay type: ADME, tissue-based
[24] = AUC (0 to t) in humanized NOD.Cg-Prkdcscid Il2rgtm1Wjl/SzJ mouse infected with Plasmodium falciparum Pf3D70087/N9 at 50 mg/kg, po administered as single dose by LC-MS/MS analysis; assay type: ADME, organism-based; conditions: in vivo
Mus musculus [25] = experiment: Dose normalized AUC (0 to t) in humanized NOD.Cg-Prkdcscid Il2rgtm1Wjl/SzJ mouse infected with Plasmodium falciparum Pf3D70087/N9 at 5 mg/kg, po administered as single dose by LC-MS/MS analysis; assay type: ADME, organism-based; conditions: in vivo
Cytochrome P450 2D6 = Cytochrome P450 2D6 (Homo sapiens, UniProt P10635); experiment: Inhibition of CYP2D6 in human liver microsomes assessed as dextromethorphan O-demethylation after 4 to 40 mins in presence of NADPH by LCMS analysis
Plasmodium berghei = experiment: Antimalarial activity against Plasmodium berghei infected in mouse assessed as reduction in parasitemia at 30 mg/kg, po administered as single dose measured on day 3 relative to control; assay type: functional; design: scale not given: the % may be the effect or the level left
[26] = Drug metabolism in mouse liver microsomes assessed as metabolite M+16 (IV) formation at 5 uM after 60 mins by UPLC-MS analysis; assay type: ADME, microsome; conditions: 1 h

Chain of Cytochrome P450 2D6 (P10635 whole entry): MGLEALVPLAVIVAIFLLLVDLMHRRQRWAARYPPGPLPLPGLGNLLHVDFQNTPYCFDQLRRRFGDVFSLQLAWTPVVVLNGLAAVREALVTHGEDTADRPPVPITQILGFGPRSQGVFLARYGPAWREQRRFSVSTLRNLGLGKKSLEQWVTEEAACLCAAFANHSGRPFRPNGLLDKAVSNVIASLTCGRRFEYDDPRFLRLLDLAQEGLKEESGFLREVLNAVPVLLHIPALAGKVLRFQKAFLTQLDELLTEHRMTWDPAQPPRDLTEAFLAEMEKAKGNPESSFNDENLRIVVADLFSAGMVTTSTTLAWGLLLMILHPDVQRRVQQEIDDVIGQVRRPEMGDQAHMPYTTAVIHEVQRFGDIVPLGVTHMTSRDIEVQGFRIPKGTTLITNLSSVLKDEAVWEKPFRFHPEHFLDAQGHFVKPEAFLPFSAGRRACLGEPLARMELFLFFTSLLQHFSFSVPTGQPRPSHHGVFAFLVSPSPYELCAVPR
Chain of Cytochrome P450 2C19 (P33261 whole entry): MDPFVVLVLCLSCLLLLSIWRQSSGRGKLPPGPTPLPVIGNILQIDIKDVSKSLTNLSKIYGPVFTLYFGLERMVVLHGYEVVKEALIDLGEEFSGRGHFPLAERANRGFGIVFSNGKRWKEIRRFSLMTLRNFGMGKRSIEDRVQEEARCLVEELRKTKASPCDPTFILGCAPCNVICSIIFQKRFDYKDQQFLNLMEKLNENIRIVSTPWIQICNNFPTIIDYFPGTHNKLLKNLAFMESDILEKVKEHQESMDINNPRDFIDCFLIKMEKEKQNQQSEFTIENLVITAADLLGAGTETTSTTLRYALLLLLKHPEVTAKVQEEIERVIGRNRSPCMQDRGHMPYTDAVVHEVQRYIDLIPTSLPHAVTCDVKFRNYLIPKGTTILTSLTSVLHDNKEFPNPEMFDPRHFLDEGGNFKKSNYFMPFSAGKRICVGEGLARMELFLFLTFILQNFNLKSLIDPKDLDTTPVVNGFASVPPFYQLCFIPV
Chain of Cytochrome P450 3A4 (P08684 whole entry): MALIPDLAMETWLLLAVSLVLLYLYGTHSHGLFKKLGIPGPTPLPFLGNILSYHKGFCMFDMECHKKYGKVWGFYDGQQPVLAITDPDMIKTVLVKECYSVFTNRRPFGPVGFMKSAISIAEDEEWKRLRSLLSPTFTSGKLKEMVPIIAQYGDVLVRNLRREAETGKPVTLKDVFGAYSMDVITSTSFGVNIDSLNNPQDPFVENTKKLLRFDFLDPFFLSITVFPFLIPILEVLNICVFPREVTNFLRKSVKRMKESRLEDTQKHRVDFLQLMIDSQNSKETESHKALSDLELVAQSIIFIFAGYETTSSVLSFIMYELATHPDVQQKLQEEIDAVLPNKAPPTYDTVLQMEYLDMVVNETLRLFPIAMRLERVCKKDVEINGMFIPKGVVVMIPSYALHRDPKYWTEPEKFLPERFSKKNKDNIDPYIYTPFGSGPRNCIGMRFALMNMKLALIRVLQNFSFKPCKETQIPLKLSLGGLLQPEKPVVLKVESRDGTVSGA

## c1cc(C2CCC3(CC2)OOC2(OO3)C3CC4CC(C3)CC2C4)ccc1CN1CCOCC1 (stereo unspecified)
[1]
  Drug metabolism: Metabolite_Notdetected
Cytochrome P450 3A4
  IC50: > 20 µM
Cytochrome P450 1A2
  IC50: > 20 µM
[2]
  Drug metabolism: Metabolite_Notdetected
[3]
  half-life at 5 µM: 43 min
Mus musculus [4]
  AUCt/dose: 0.0599 µg·h/mL/mg/kg
[5]
  Drug metabolism: Metabolite_Notdetected
[6]
  Drug metabolism: Metabolite_Notdetected
[7]
  Drug metabolism: Metabolite_Detected
[8]
  Drug metabolism: Metabolite_Notdetected
[9]
  metabolised at 1 h, 5 µM: 82%
[10]
  AUC(0-t): 1280 ng·h/mL
[11]
  Drug metabolism: Metabolite_Notdetected
[12]
  Drug metabolism: Metabolite_Detected
Mus musculus [13]
  Cmax/dose: 0.0218 µg/mL/mg/kg
[14]
  Drug metabolism: Metabolite_Notdetected
[15]
  half-life at 5 µM: 20 min
[16]
  bioavailability: 52%
[17]
  Drug metabolism: Metabolite_Notdetected
Cytochrome P450 2C19
  IC50: > 20 µM
[18]
  metabolised at 1 h, 5 µM: 63%
[19]
  Drug metabolism: Metabolite_Notdetected
[20]
  Cmax: 148 ng/mL
[21]
  microsomal CLint at 1 µM: 51 µL/min/mg
[22]
  Tmax: 60 min
[23]
  Stability: Stable
[24]
  AUC(0-t): 3000 ng·h/mL
Mus musculus [25]
  AUCt/dose: 0.256 µg·h/mL/mg/kg
Cytochrome P450 2D6
  IC50: > 20 µM
Plasmodium berghei
  Activity: 99.42%
[26]
  Drug metabolism: Metabolite_Detected
